From patent US7208517B1, “Endothelin antagonists” (Abbott Labortories, priority 1994, dated 2007)

Biological target: T1, ETA Receptor (Rattus norvegicus, UniProt P26684)
T1 construct: endogenous in cells; host or cells: MMQ rat pituitary cells (membranes)
T1 sequence (P26684 21-426): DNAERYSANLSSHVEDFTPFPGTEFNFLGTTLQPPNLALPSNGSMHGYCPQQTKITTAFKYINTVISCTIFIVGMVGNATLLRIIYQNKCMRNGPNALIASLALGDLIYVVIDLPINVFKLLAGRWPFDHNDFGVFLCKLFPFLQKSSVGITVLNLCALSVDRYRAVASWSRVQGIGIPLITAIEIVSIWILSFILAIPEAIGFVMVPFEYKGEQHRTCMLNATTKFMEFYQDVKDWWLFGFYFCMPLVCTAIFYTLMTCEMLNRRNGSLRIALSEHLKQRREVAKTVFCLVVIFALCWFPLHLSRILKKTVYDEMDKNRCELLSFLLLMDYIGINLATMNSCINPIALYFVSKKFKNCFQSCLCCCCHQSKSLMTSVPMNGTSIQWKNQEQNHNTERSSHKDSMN
Experiment: [125I]ET-1 binding to membranes from MMQ cells (ETA receptor binding assay, Table 4)
Conditions: test compound at 1 μM; 0.1 nM [125I]ET-1, MMQ cell membranes, 4 hours at 25° C.
Protocol: Preparation of Membranes from MMQ Cells:
MMQ [MacLeod/MacQueen/Login cell line (prolactin secreting rat pituitary cells)] cells from 150 mL culture flasks were collected by centrifugation (1000×g for 10 min) and then homogenized in 25 mL of 10 mM Hepes (pH 7.4) containing 0.25 M sucrose and protease inhibitors [3 mM EDTA, 0.1 mM PMSF, and 5 μg/mL Pepstatin A] by a micro ultrasonic cell disrupter (Kontes). The mixture was centrifuged at 1000×g for 10 min. The supernatant was collected and centrifuged at 60,000×g for 60 min. The precipitate was resuspended in 20 mM Tris, pH 7.4 containing the above protease inhibitors and centrifuged again. The final pellet was resuspended in 20 mM Tris, pH 7.4 containing protease inhibitors and stored at −80° C. until used. Protein content was determined by the Bio-Rad dye-binding protein assay.
Binding assays were performed in 96-well microtiter plates pretreated with 0.1% BSA. […] After incubation, unbound ligands were separated from bound ligands by a vacuum filtration method using glass-fiber filter strips in PHD cell harvesters (Cambridge Technology, Inc., MA), followed by washing the filter strips with saline (1 mL) for three times. Nonspecific binding was determined in the presence of 1 μM ET-1.

SMILES | % Inhibition of ETA at 1 μM
COc1ccc(C2C(C(=O)O)C(c3ccc4c(c3)OCO4)CN2C/C=C/CC(C)C)cc1 (stereo not drawn) [Example 69D, trans,trans-2-(4-Methoxyphenyl)-4-(1,3-benzodioxol-5-yl)-1-N-(trans-5-methylhex-2-enyl)-pyrrolidine-3-carboxylic acid] | 37.4%
COc1ccc(C2C(C(=O)O)C(c3ccc4c(c3)OCO4)CN2CC(=O)N(C)c2ccccc2)cc1 (stereo not drawn) [Example 45, trans,trans-2-(4-Methoxyphenyl)-4-(1,3-benzodioxol-5-yl)-1-(N-methyl-N-phenylaminocarbonylmethyl)-pyrrolidine-3-carboxylic acid] | 85.4%
CCOCCN1CC(c2ccc3c(c2)OCO3)C(C(=O)O)C1c1ccc(OC)cc1 (stereo not drawn) [Example 4, trans,trans-2-(4-Methoxyphenyl)-4-(1,3-benzodioxol-5-yl)-1-(2-ethoxyethyl)-pyrrolidine-3-carboxylic acid] | 78.2%
CCCN(CCN1CC(c2ccc3c(c2)OCO3)C(C(=O)O)C1c1ccc(OC)cc1)S(=O)(=O)c1ccc(C)cc1 (stereo not drawn) [Example 129, trans,trans-1-(2-(N-Propyl-N-(4-methylbenzenesulfonyl)amino)ethyl)-2-(4-methoxyphenyl)-4-(1,3-benzodioxol-5-yl)pyrrolidine-3-carboxylic acid] | 100.1%
CCCOCCN1CC(c2ccc3c(c2)OCO3)C(C(=O)O)C1c1ccc(OC)cc1 (stereo not drawn) [Example 5, trans,trans-2-(4-Methoxyphenyl)-4-(1,3-benzodioxol-5-yl)-1-(2-propoxyethyl)-pyrrolidine-3-carboxylic acid] | 95.1%
CCCN(CCN1CC(c2ccc3c(c2)OCO3)C(C(=O)O)C1c1ccc(OC)cc1)S(=O)(=O)c1cccc2c(N(C)C)cccc12 (stereo not drawn) [Example 127, trans,trans-1-(2-(N-Propyl-N-(5-dimethylamino-1-naphthylsulfonyl)amino)ethyl)-2-(4-methoxyphenyl)-4-(1,3-benzodioxol-5-yl)pyrrolidine-3-carboxylic acid] | 91.4%

Second part, the compound after the results:

% Inhibition of ETA at 1 μM | SMILES
82.7% | CCCN(CCN1C[C@H](c2ccc3c(c2)OCO3)[C@@H](C(=O)O)[C@@H]1c1ccc(OC)cc1)S(=O)(=O)N(C)C (relative stereo) [Example 315, trans,trans-2-(4-Methoxyphenyl)-4-(1,3-benzodioxol-5-yl)-1-(2-(N-propyl-N-dimethylsulfamoylamino)ethyl)-pyrrolidine-3-carboxylic acid]
92.8% | CCCCN(CCCC)C(=O)CN1CC(c2ccc3c(c2)OCC3)C(C(=O)O)C1c1ccc(OC)cc1 (stereo not drawn) [Example 141, trans,trans-1-(N,N-Di(n-butyl)aminocarbonylmethyl)-2-(4-methoxyphenyl)-4-(6-benzo-2,3-dihydrofuranyl)pyrrolidine-3-carboxylic acid]
90.4% | CCCCCS(=O)(=O)N(CCC)CCN1CC(c2ccc3c(c2)OCO3)C(C(=O)O)C1c1ccc(OC)cc1 (stereo not drawn) [Example 299, trans,trans-2-(4-Methoxyphenyl)-4-(1,3-benzodioxol-5-yl)-1-(2-(N-propyl-N-n-pentanesulfonylamino)ethyl)-pyrrolidine-3-carboxylic acid]
77.7% | COc1ccc(C2C(C(=O)O)C(c3ccc4c(c3)OCO4)CN2CC(=O)N2CCCC(C)(C)C2)cc1 (stereo not drawn) [Example 294, trans—trans-2-(4-Methoxyphenyl)-4-(1,3-benzodioxol-5-yl)-1-[3,3-dimethylpiperidinyl-carbonylmethyl]-pyrrolidine-3-carboxylic acid]
84.6% | CCCCN(CCCC)C(=O)CN1CC(c2ccc(OC)cc2)C(C(=O)O)C1c1ccc(OC)cc1 (stereo not drawn) [Example 149, trans,trans-1-(N,N-Di(n-butyl)aminocarbonylmethyl)-2-(4-methoxyphenyl)-4-(4-methoxyphenyl)pyrrolidine-3-carboxylic acid]
